In PMC12398505 (Nature Communications, 2025):

Experiments:
[1] = target: SLCO2A1 E465K mutant (Homo sapiens, UniProt Q92959, E465K); experiment: 6-CF uptake assay, HEK293F cells expressing SLCO2A1 E465K; type: cell-based; conditions: E465K mutant vs WT
[2] = target: SLCO2A1 C143A mutant (Homo sapiens, UniProt Q92959, C143A); experiment: 6-CF uptake assay, HEK293F cells expressing SLCO2A1 C143A; type: cell-based; conditions: C143A mutant vs WT
[3] = target: SLCO2A1 Y90A mutant (Homo sapiens, UniProt Q92959, Y90A); experiment: 6-CF uptake assay, HEK293F cells expressing SLCO2A1 Y90A; type: cell-based; conditions: 50 μM 6-CF
[4] = target: SLCO2A1 C448A mutant (Homo sapiens, UniProt Q92959, C448A); experiment: 6-CF uptake assay, HEK293F cells expressing SLCO2A1 C448A; type: cell-based; conditions: C448A mutant vs WT
[5] = target: SLCO2A1 W565F mutant (Homo sapiens, UniProt Q92959, W565F); experiment: 6-CF uptake assay, HEK293F cells expressing SLCO2A1 W565F; type: cell-based; conditions: 50 μM 6-CF
[6] = target: SLCO2A1 S346A mutant (Homo sapiens, UniProt Q92959, S346A); type: cell-based
[7] = target: SLCO2A1 C420F mutant (Homo sapiens, UniProt Q92959, C420F); experiment: 6-CF uptake assay, HEK293F cells expressing SLCO2A1 C420F; type: cell-based; conditions: C420F mutant vs WT
[8] = tested on: SLCO2A1; conditions: read-out: Km for 6-CF reported in a previous study; cited from earlier work
[9] = target: SLCO2A1 R445C mutant (Homo sapiens, UniProt Q92959, R445C); experiment: 6-CF uptake assay, HEK293F cells expressing SLCO2A1 R445C; type: cell-based; conditions: 50 μM 6-CF
[10] = tested on: SLCO2A1; conditions: read-out: IC50 in competitively inhibiting radioactive PGE2; pH 7.4; cited from earlier work
[11] = target: human SLCO2A1 (Homo sapiens, UniProt Q92959); experiment: 6-CF uptake assay in HEK293F cells expressing SLCO2A1 WT

decrease of 6-CF uptake activity [1]	reduction of the 6-CF uptake activity [2]	6-CF uptake (percentage of SLCO2A1-WT) [3] [%]	reduction of the 6-CF uptake activity [4] [%]	6-CF uptake (percentage of SLCO2A1-WT) [5] [%]	increase in 6-CF uptake activity [6] [fold]	decrease of 6-CF uptake activity [7]	6-CF uptake (percentage of SLCO2A1-WT) [9] [%]	IC50 [11] [nM]	IC50 (6-CF uptake) relative to IC50 (radioactive PGE2, pH 7.4) ([11]; IC50 2.21 μM vs 0.17 μM) [fold]	Molecule	Km [8] [µM]	IC50 [10] [nM]
more than 80%	approximately 80%	60	~55	~50	1.5	more than 80%	60			6-Carboxyfluorescein [6-CF]	270 ± 40.7	
								2210 ± 370	13	Cc1ccc(C(=O)Nc2ccc(S(=O)(=O)O)c3cc(S(=O)(=O)O)cc(S(=O)(=O)O)c23)cc1NC(=O)c1cccc(NC(=O)Nc2cccc(C(=O)Nc3cc(C(=O)Nc4ccc(S(=O)(=O)O)c5cc(S(=O)(=O)O)cc(S(=O)(=O)O)c45)ccc3C)c2)c1 [suramin]		170
